Results from patent US20230381249A1, “PROBIOTIC STRAIN FOR COUNTERING CARIES PATHOGENS” (The Governing Council of the University of Toronto, priority 2022, published 2023).

B1: SalE4: Multipeptide lantibiotic bacteriocin of VAR6 composed of Pep1, Pep2, Pep3 and Pep4 (SEQ ID NOs 5-8) (protein, listed as Streptococcus salivarius)
chain 1: MAKNTSRPEIDSLSFEVENQELSGKSGSGWFTAVQLTLAGRCGRWFTGSFECTTNNVKCG
chain 2: MRKNNNRKEIDTLDFEVKNQELSGKSGSGWFTAVQLTLAGRCGRWFTGSYECTTNNVKCG
chain 3: MKSKKVNTEIDTLEFEIDNQELNGTSGSGWWYTAFKMTLAGRCGLCFTCSYECTTNNVHC
chain 4: MKQDNFEIDSLDYEINSQELNGKSAAGWSTAVRLTVQGRCGWWFTHSYECTSPNVRCG
modifications: lantibiotic post-translational modifications

Test system: S. mutans S125 biofilms
Experiment: Static microtiter plate biofilm killing assay, mono-species
Assay type: cell-based, Streptococcus mutans
Conditions: for Biofilm cells killed: 24-h-old S. mutans S125 biofilm, strains 10^7 CFU/ml, chlorhexidine 10X MIC
Procedure: Static biofilms of S. mutons were developed on polystyrene microtiter plates by inoculating 300 μl of BHI medium with 10 μl (10^6 CFU/ml) of S. mutons S125 from an overnight culture. After 24 h of growth, the planktonic phase was carefully removed, and fresh bacteriocin-producing medium (BAC7, BAC8) containing chlorhexidine (10×MIC), BLIS M18® (10^7 CFU/ml), BLIS K12® (10^7 CFU/ml) or VAR6 (10^7 CFU/ml) was overlayed onto established biofilms and the plates were incubated for 24 h at 37° C. The upper phase was then removed, and the biofilms were washed with sterile phosphate-buffered saline (PBS, pH 7.2) and dislodged by gentle scraping using sterile pipette tips. Biofilm cells were serially diluted and plated on BHI-erythromycin agar plates. Colonies of S. mutons were counted after 48 h of incubation at 37° C. in air with 5% CO2. All assays were performed in triplicate from three independent cultures. For the fungal-bacterial assay, biofilms were developed in Yeast extract-Peptone-Glycerol (YPG) medium and using a mixture of S. mutons/Candida albicans at a ratio of 1:1. For the dental plaque assay, biofilms were developed in BHI broth and using BHI plaque suspension supplemented with S. mutons (approx. 10^5 CFU/ml).

Molecule	Biofilm cells killed (24 h treatment in BAC7)	Biofilm cells killed (24 h treatment in BAC8)	Killing of S. mutans and inhibition of S. mutans biofilm growth (BAC7 and BAC8 medium, and in situ in the mouth of an individual)
[H]/N=C(\N/C(=N/[H])NCCCCCCNC(=N)NC(=N)Nc1ccc(Cl)cc1)Nc1ccc(Cl)cc1 [chlorhexidine]	91.6%±3.29	90.1%±2.89	
B1			kill S. mutans, and inhibit the growth of S. mutans biofilms
